According to patent publication US20230130403A1, “METHODS OF TREATMENT WITH S1P RECEPTOR MODULATORS” (PRIOTHERA SAS, priority 2021, published 2023):

How the values were obtained:
[1] = system: hematological cytotoxicity; assay: Hematological cytotoxicity in vitro; assay type: cell-based; conditions: therapeutic concentrations in vitro
Description: (§1) KRP203 reduces lymphocyte counts in peripheral blood by more than 80%.

[2] = system: neuropharmacological effects; assay: Safety pharmacology: neuropharmacological effects in rats; assay type: in vivo, rat; conditions: doses up to 2000 mg/kg, except some piloerection
[3] = target: CYP3A4 via the human PXR receptor (Homo sapiens, UniProt O75469); assay: CYP3A4 induction via PXR; assay type: in vitro ADME
[4] = system: rabbit skin; assay: Skin irritation; assay type: in vivo
[5] = Repeat-dose toxicity studies in mice; conditions: in vivo; 13-week mouse study, 20 mg/kg; read-out: systemic exposure (AUC0-24 h)
Procedure: (§2) The kidney was a target organ of toxicity in mice only and only in a 2-week study at doses ≥45 mg/kg.
(§3) Kidney impairment was most likely the primary cause of death/moribundity seen in this study.

[6] = system: mice; assay: Repeat-dose toxicity studies in mice; conditions: mouse, in vivo
Procedure: as §2, §3

[7] = dog, in vivo
[8] = system: human cytochrome P450 isoenzymes; assay: Inhibition of cytochrome P450 isoenzymes in vitro; assay type: in vitro ADME
Procedure: The in vivo ratio of phosphorylated KRP203 to KRP203 in plasma was up to 45 in rat. As the metabolic activities on KRP203 in human blood and hepatocytes were lower than those of other species, the metabolic clearance of KRP203 in man is expected be lower than that in rat and dog. […] KRP230 formed low amounts of covalent drug-protein adducts in human hepatocytes in vitro. Due to the low levels detected ([…] at 3 hours) in-vitro adduct formation is unlikely to be associated with clinical relevant findings at low dose levels (e.g. below 10 mg).
The weak inhibitory effect of ciclosporin on hepatic CYP3A4 is unlikely to relevantly impact the PK of KRP203.

[9] = system: heart rate; assay: Heart rate in isolated rabbit heart or guinea pig
Description: (§4) Based on the available in vitro and in vivo data, except for the potential to cause a negative chronotropic effect and some mild increase in blood pressure, there is no indication that KRP203 would cause arrhythmia or QT prolongation in man.

[10] = system: lymphocyte counts in peripheral blood; assay: Reduction of lymphocyte counts in peripheral blood; conditions: in vivo
Description: as §1

[11] = system: micronucleus; assay: In vivo micronucleus study in mice; design: species or system mouse
[12] = system: blood pressure; assay: Blood pressure in dogs; assay type: in vivo, dog
Description: as §4

[13] = system: rats and rabbits; assay: Reproductive toxicity studies in rats and rabbits; assay type: in vivo
[14] = system: pulmonary endothelial barrier; assay: Pulmonary endothelial barrier after single oral dose; assay type: in vivo
Description: as §4

[15] = system: contact sensitizing potential; assay: Contact sensitization; conditions: in vivo
[16] = system: peripheral lymphocyte counts; assay: Recovery of absolute lymphocyte counts after S1P modulator dosing in healthy volunteers; assay type: in vivo, human; conditions: single 1 mg FTY720, BAF312 multiple doses for 28 days, single 3 mg KRP203
Procedure: Mocravimod is particularly preferred. […] A measurable parameter that determines maintenance of the mode of action, i.e., sequestering of lymphocytes in secondary lymphoid organs and bone marrow, is reduction of peripheral lymphocyte counts. Recovery of absolute lymphocyte counts to 80% of normal counts after a single 1 mg dose of FTY720, multiple dose applications of BAF312 for 28 days, or a single 3 mg dose of KRP203 was reached after 8, 7 and more than 10 days, respectively.

[17] = system: patients undergoing allogeneic HSCT for hematological malignancies; assay: Study CKRP203A2105, phase Ib in patients undergoing allogeneic HSCT;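 note: counts of subjects, HLA-matched donor stem cells, transplant on Day 11 following myeloablative chemotherapy conditioning from Day 2 to Day 10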
Description: The study population comprised of male or female subjects who were diagnosed with a hematological malignancy and qualified for a standard allogeneic HSCT where HLA matched stem cell source was available. Such malignancies included but were not limited to acute myeloid leukemia (AML), acute lymphoid leukemia (ALL), myelodysplastic syndrome (MDS, chronic lymphoid leukemia (CLL), marginal zone and follicular lymphomas, large-cell lymphoma, lymphoblastic, Burkitt's and other high grade lymphomas; mantle-cell lymphoma, lymphoplasmacytic lymphoma; prolymphocytic leukemia or multiple myeloma.
HSCT was performed on Day 11. In addition to the investigational treatment with KRP203, the activities included conditioning, standard GvHD prophylaxis, infusion of the stem cells, pre and post-transplant supportive care and follow-up assessments according to the institutional practices. Subjects remained hospitalized for two to five days after bone marrow engraftment occurred. The subsequent study visits were ambulatory or in-house, if needed depending on the health status of the subject.
Myeloablative conditioning was performed between Day 2 and Day 10 as per SOC using chemotherapy.
As in Part 1, HSCT was performed on Day 11, all other procedures/visits were same as in Part 1.

[18] = system: respiratory function in dogs; assay: Safety pharmacology: respiratory function in dogs; assay type: in vivo, dog; conditions: doses up to 20 mg/kg (highest dose tested)
Description: as §4

[19] = target: hERG channels (Homo sapiens, UniProt Q12809); assay: hERG channel inhibition in vitro; assay type: biochemical; conditions: between 0.5 and 10 μM
Description: as §4

[20] = Part 1, 3 mg KRP203+CsA, n=10, after 30 days of transplant
[21] = Part 1, 3 mg KRP203+CsA, n=10, from transplant up to 30 days of transplant
[22] = Part 1, 3 mg KRP203+CsA, n=10, start of treatment until just before transplant
[23] = Part 1, after 30 days of transplantation
[24] = Part 1, start of treatment until just before transplant
[25] = Part 2, 1 mg KRP203+CsA arm, from transplant up to 30 days after transplant
[26] = Part 2, after 30 days of transplantation
[27] = Part 2, following 30 days after transplant

Chain of hERG channels (Q12809 whole entry): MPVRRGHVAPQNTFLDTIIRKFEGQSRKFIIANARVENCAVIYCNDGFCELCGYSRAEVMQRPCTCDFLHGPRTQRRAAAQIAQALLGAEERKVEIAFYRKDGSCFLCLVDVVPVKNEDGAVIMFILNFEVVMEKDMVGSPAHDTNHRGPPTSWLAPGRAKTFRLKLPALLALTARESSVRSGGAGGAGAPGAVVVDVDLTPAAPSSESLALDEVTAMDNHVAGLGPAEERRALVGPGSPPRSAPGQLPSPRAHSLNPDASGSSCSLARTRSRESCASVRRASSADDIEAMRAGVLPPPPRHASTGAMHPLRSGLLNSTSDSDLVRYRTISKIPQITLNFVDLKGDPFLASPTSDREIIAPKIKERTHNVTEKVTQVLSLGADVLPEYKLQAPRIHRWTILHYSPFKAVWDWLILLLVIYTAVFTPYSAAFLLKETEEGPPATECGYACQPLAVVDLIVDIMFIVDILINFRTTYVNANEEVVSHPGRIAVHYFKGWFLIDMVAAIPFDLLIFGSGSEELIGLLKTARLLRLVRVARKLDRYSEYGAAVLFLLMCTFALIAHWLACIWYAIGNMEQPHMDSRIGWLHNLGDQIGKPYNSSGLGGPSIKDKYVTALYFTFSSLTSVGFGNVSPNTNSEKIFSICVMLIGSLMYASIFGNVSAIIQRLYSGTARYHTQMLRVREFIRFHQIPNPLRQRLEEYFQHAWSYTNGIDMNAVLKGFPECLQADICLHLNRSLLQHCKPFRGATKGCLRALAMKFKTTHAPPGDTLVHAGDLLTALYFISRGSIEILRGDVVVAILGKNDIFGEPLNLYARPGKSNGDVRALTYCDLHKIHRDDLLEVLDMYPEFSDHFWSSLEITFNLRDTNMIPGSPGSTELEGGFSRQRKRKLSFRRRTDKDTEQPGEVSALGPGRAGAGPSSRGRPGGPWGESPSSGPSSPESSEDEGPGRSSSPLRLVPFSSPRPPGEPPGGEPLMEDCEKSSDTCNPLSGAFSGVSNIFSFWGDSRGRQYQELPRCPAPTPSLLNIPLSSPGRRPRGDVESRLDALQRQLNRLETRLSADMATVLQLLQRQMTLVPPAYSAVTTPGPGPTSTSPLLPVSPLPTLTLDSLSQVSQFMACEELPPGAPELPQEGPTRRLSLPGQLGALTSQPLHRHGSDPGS
Chain of CYP3A4 via the human PXR receptor (O75469 whole entry): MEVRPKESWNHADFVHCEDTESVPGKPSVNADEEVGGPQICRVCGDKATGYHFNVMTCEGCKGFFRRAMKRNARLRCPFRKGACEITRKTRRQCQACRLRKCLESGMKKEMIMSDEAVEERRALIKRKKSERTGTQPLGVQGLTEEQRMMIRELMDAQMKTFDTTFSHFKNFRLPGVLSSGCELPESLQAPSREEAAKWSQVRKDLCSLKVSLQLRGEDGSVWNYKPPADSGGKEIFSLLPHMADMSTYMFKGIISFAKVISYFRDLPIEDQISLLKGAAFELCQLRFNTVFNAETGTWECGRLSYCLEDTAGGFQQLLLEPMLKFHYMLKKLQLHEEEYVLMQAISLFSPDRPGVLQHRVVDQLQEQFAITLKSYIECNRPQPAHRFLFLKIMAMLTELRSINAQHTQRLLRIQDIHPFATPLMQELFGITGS

NC(CO)(CO)CCc1ccc(Sc2cccc(OCc3ccccc3)c2)cc1Cl [KRP203, 2-amino-2-[4-(3-benzyloxyphenylthio)-2-chlorophenyl] ethyl-propane-1,3-diol]
exhibits hematological cytotoxicity [1]: does not | neuropharmacological effects [2]: no adverse neuropharmacological effects | no significant induction of CYP3A4 via the human PXR receptor up to concentration [3]: ≤ 6.15 µM | skin irritation [4]: not irritating | AUC0-24 [5]: ~7.25 µg·h/mL | doses with kidney toxicity ([6]; both, 2 weeks): ≥ 45 mg/kg | doses with mortality ([6]; both, 2 weeks): ≥ 45 mg/kg/day | no kidney changes up to highest dose level ([6]; 13 weeks): ≤ 20 mg/kg | accumulation after repeated dosing (4 and 13 weeks) [7]: no evidence of accumulation | effect on cytochromes P450 enzymes and transporters [8]: lack of effect | potential in inhibiting the activity of human cytochrome P450 isoenzymes ([8]; in vitro tests): did not show relevant potential | potential to decrease heart rate, extrapolated exposure [9]: 20.1 µM | reduction of lymphocyte counts in peripheral blood [10]: more than 80% | genotoxic potential [11]: no evidence for a genotoxic potential | potential to increase blood pressure, extrapolated exposure [12]: 20.3 µM | no effects on male fertility up to highest dose ([13]; in vivo): ≤ 20 mg/kg | NOAEL for embryo lethality and malformations ([13]; rat study): no NOAEL | reproductive toxicity ([13]; rats and rabbits): teratogenic potential and effects on the reproductive tract, resulting in embryo lethality and malformations at low doses | effect on pulmonary endothelial barrier [14]: mildly decreased pulmonary endothelial barrier | contact sensitizing potential [15]: does not have a contact sensitizing potential | Recovery of absolute lymphocyte counts to 80% of normal counts [16]: more than 10 days | subjects with AEs that resulted in discontinuation of study drug ([17]; 1 mg KRP203+CsA arm): 33% | safety profile between dose groups ([17]; 1 mg/day plus CsA or 3 mg/day plus CsA or TAC): comparable between the 1 mg and 3 mg mocravimod dose groups | subjects with AEs that resulted in discontinuation of study drug ([17]; 3 mg KRP203+CsA arm): 29% | subjects with AEs that resulted in discontinuation of study drug ([17]; 3 mg KRP203+Tac arm): 14% | subjects with AEs, SOC general disorders and administration site conditions [17, 20]: 60% | subjects with AEs, SOC immune system disorders [17, 20]: 100% | subjects with AEs, SOC infection and infestations [17, 20]: 50% | subjects with acute GvHD in intestine [17, 20]: 30% | subjects with acute GvHD in skin [17, 20]: 30% | subjects with chronic GvHD [17, 20]: 70% | subjects with chronic GvHD in intestine [17, 20]: 20% | subjects with chronic GvHD in liver [17, 20]: 50% | subjects with chronic GvHD in skin [17, 20]: 30% | subjects with diarrhea [17, 20]: 20% | subjects with edema peripheral [17, 20]: 40% | subjects with edema peripheral suspected related to study treatment [17, 20]: 20% | subjects with eyelid edema [17, 20]: 20% | subjects with nausea [17, 20]: 20% | subjects with rash [17, 20]: 20% | subjects with AEs, SOC gastrointestinal disorder [17, 21]: 70% | subjects with AEs, SOC immune system disorders [17, 21]: 30% | subjects with AEs, SOC nervous system disorders [17, 21]: 30% | subjects with AEs, SOC respiratory, thoracic and mediastinal disorders [17, 21]: 40% | subjects with AEs, SOC vascular disorders [17, 21]: 30% | subjects with acute GvHD in intestine [17, 21]: 30% | subjects with capillary leak syndrome (suspected related to study treatment) [17, 21]: 20% | subjects with nausea [17, 21]: 20% | subjects with pleural effusion (suspected related to study treatment) [17, 21]: 20% | subjects with vomiting [17, 21]: 60% | subjects with AEs, SOC gastrointestinal disorders [17, 22]: 60% | subjects with bradycardia [17, 22]: 20% | subjects with bradycardia suspected related to study treatment [17, 22]: 20% | subjects with hypertension suspected related to study treatment [17, 22]: 10% | subjects with nausea [17, 22]: 20% | subjects with sinus arrest suspected related to study treatment [17, 22]: 10% | subjects with vomiting [17, 22]: 40% | subjects reporting AEs ([17]; Part 1, after 30 days of study treatment): all subjects | subjects with serious AEs suspected related (cystoid macular edema, dyspnea exertional, edema peripheral) ([17]; Part 1, after 30 days of transplant, mild severities): 10% | subjects with SAEs [17, 23]: 40% | subjects with SAEs, general disorders and administration site conditions [17, 23]: 30% | subjects with SAEs, infections and infestations [17, 23]: 20% | subjects with SAEs, neoplasms benign, malignant and unspecified [17, 23]: 20% | subjects with serious AEs (acute GvHD, dyspnea and weight increased) ([17]; Part 1, from transplant up to 30 days after the transplant): 20% | subjects reporting AEs [17, 24]: seven subjects | subjects with serious AE of vomiting [17, 24]: 10% | subjects reporting AEs ([17]; Part 1, up to 30 days of transplant): nine subjects | subjects with serious AEs of blepharitis and cystoid macular edema [17, 25]: 10% | subjects with serious AEs suspected related (blepharitis Grade 2, cystoid macular edema Grade 3) [17, 25]: 17% | subjects with at least one AE ([17]; Part 2, both treatment arms (n=13), in each of the three periods): 100% | subjects with serious AE acute GvHD in intestine [17, 26]: 23% | subjects with serious AE diarrhea [17, 26]: 15% | subjects with serious AE general physical health deterioration [17, 26]: 15% | incidence each of febrile bone marrow aplasia, hepatic failure, Hodgkin's disease, macular ischemia and retinal ischemia (related SAEs) [17, 27]: 8% | subjects with serious AEs suspected related to study treatment [17, 27]: 31% | serious AEs ([17]; Part 2, start of treatment until just before transplant): No serious AE | study discontinuation due to AEs ([17]; all 23 treated subjects): 13% | study discontinuation due to death ([17]; all 23 treated subjects): 9% | deaths reported ([17]; overall, during the study, one-year and long-term follow-up period): seven | effects on respiratory function [18]: no significant effects | inhibition of hERG channels [19]: slight inhibitory potential
